Columns and labels:
human PAR-1 [1] = molecular target: T1, human PAR-1 (Homo sapiens, UniProt P25116); experiment: GTPγS binding assay with membrane fraction of human PAR-1-expressing cells; type: biochemical; details: [35S]-GTPγS binding to human PAR-1-expressing cell membrane fraction; agonist peptide SFLLRN-NH2
T1 construct: expressed in transfected cells; host or cells: CHO-K1 (transformant flag/trn/CHO-K1)
T1 sequence (P25116 22-425): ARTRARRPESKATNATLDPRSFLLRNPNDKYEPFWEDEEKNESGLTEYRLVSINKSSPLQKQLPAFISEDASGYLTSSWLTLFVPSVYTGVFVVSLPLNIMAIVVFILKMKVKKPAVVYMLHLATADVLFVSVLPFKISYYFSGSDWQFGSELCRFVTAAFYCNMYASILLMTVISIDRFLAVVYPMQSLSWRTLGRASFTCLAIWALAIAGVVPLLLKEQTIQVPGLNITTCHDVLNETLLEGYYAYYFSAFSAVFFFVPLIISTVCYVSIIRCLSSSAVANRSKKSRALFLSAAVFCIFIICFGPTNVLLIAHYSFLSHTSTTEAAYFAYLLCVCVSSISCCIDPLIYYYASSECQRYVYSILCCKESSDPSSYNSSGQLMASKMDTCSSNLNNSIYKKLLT
Description: The preparation method of the membrane fraction used for the GTPγS binding assay is shown below.
Human PAR-1-expressing cells were inoculated to an F500 flask at 1.8×10^5 cells/flask, and the cells were cultured for 2 days. The cells were detached with saline containing 0.02% EDTA. The cells were centrifuged (2000 rpm, 10 min), cell pellets were re-suspended in 12 ml of homogenate buffer (10 mM NaHCO3, 1 mM EDTA, protease inhibitor cocktail, pH 7.4), and homogenized by Polytron™. The residual cells were removed by centrifugation (2000 rpm, 10 min), and the supernatant was ultracentrifuged (Beckman Instruments 70 Ti type rotor, 30000 rpm, 1 hr) to give a membrane fraction of human PAR-1-expressing cells in a sediment, which was preserved at −80° C. and dissolved before use for an assay.
The measurement method of the GTPγS binding activity is shown below.
Then, the reaction mixture was filtered through a GF/C filter, washed 4 times with 300 μL of saline, and the radioactivity of the filter was measured by a TopCount scintillation counter.
The concentration (IC50 value) of the test compound necessary for inhibiting the GTPγS binding activity by 50% was calculated using PRISM3.0 (PraphPad software).

human PAR-1 [2] = molecular target: T1, human PAR-1; experiment: Evaluation of PAR-1 antagonistic action by intracellular calcium concentration variation assay (FLIPR); type: cell-based; details: human PAR-1-expressing CHO cells, agonist peptide SFLLRN-NH2 final concentration 0.3 nM, Fluo-3AM
Description: Evaluation of PAR-1 Antagonistic Action of Compound by Intracellular Calcium Concentration Variation Assay
Human PAR-1-expressing cells was plated at 3×10^4 cells/well on a 96 well clear bottom plate (Corning 3904 type) and cultured for 16-24 hr. The medium was removed from the wells of the plate, measurement buffer (50 μL, 115 mM NaCl, 5.4 mM KCl, 1.8 mM CaCl2, 0.8 mM MgCl2, 13.8 mM D-glucose, 0.1% BSA, 20 mM HEPES, pH 7.4) containing 2.5 μg/mL of Fluo-3AM (manufactured by Dojindo Laboratories), 0.08% Pluronic F-127 and 2.5 mM Probenecid was added to the cells and the mixture was reacted at 37° C. for 1 hr. The cells were washed twice with the measurement buffer. After addition of the measurement buffer (100 μL), a measurement buffer (50 μL) containing a test compound was added, and the mixture was stood still for 10 min. The plate was moved to a fluorometry image-plate reader (FLIPR-1, manufactured by Molecular Devices). […] The intracellular calcium concentration was measured by FLIPR.

SMILES	IC50 (human PAR-1 [1]) [µM]	IC50 (human PAR-1 [2]) [nM]	melting point
CCCc1c(C(=O)NCCOc2ccccc2)nnn1-c1ccc(NC(C)=O)cc1 [Compound 3]	1.9		
CCNC(=O)c1ccc(-n2nnc(C(=O)NC3CC3)c2CCCCCc2ccccc2)cc1 [Example 101, N-cyclopropyl-1-{4-[(ethylamino)carbonyl]phenyl}-5-(5-phenylpentyl)-1H-1,2,3-triazole-4-carboxamide]		820	
CCNC(=O)c1ccc(-n2nnc(C(=O)NC3CC3)c2CC2CCCCC2)cc1 [Example 102, 5-(cyclohexylmethyl)-N-cyclopropyl-1-{4-[(ethylamino)carbonyl]phenyl}-1H-1,2,3-triazole-4-carboxamide]		1800	
CCNC(=O)c1ccc(-n2nnc(C(=O)NC3CC3)c2CC2CCCC2)cc1 [Example 103, 5-(cyclopentylmethyl)-N-cyclopropyl-1-{4-[(ethylamino)carbonyl]phenyl}-1H-1,2,3-triazole-4-carboxamide]		780	
CCNC(=O)c1ccc(-n2nnc(C(=O)NC3CC3)c2/C=C/c2ccccc2)cc1 [Example 106, N-cyclopropyl-1-{4-[(ethylamino)carbonyl]phenyl}-5-[(E)-2-phenylvinyl]-1H-1,2,3-triazole-4-carboxamide]		400	
CCNC(=O)c1ccc(-n2nnc(C(=O)NC3CC3)c2CCCCF)cc1 [Example 108, N-cyclopropyl-1-{4-[(ethylamino)carbonyl]phenyl}-5-(4-fluorobutyl)-1H-1,2,3-triazole-4-carboxamide]		620	
CCNC(=O)c1ccc(-n2nnc(C(=O)NC3CC3)c2CCCCCF)cc1 [Example 111, N-cyclopropyl-1-{4-[(ethylamino)carbonyl]phenyl}-5-(5-fluoropentyl)-1H-1,2,3-triazole-4-carboxamide]		1600	150.3 °C
C=Cc1c(C(=O)NC2CC2)nnn1-c1ccc(C(=O)NCC)cc1 [Example 115, N-cyclopropyl-1-{4-[(ethylamino)carbonyl]phenyl}-5-vinyl-1H-1,2,3-triazole-4-carboxamide]			162 °C
CCNC(=O)c1ccc(-n2nnc(C(=O)NC3CC3)c2CN2CCCC2)cc1 [Example 127, N-cyclopropyl-1-{4-[(ethylamino)carbonyl]phenyl}-5-(pyrrolidin-1-ylmethyl)-1H-1,2,3-triazole-4-carboxamide]			164 °C
CCNC(=O)c1ccc(-n2nnc(C(=O)NC3CC3)c2CN2CCOCC2)cc1 [Example 128, N-cyclopropyl-1-{4-[(ethylamino)carbonyl]phenyl}-5-(morpholin-4-ylmethyl)-1H-1,2,3-triazole-4-carboxamide]			234 °C (dec.)
CCNC(=O)c1ccc(-n2cc(C(=O)NC3CC3)nn2)c(OCCCc2ccccc2)c1 [Example 133, N-cyclopropyl-1-{4-[(ethylamino)carbonyl]-2-(3-phenylpropoxy)phenyl}-1H-1,2,3-triazole-4-carboxamide]		270	
CCCc1c(C(=O)NC2CC2)nnn1-c1ccc(C(=O)NCC)cc1O [Example 315, N-cyclopropyl-1-{4-[(ethylamino)carbonyl]-2-hydroxyphenyl}-5-propyl-1H-1,2,3-triazole-4-carboxamide]			203 °C
CCNC(=O)c1ccc(-n2nnc(C(=O)NC3CC3)c2COCc2ccccc2)c(OCc2ccccc2)c1 [Example 316, 1-{2-(benzyloxy)-4-[(ethylamino)carbonyl]phenyl}-5-[(benzyloxy)methyl]-N-cyclopropyl-1H-1,2,3-triazole-4-carboxamide]			132 °C
CCNC(=O)c1ccc(-n2nnc(C(=O)NC3CC3)c2CO)c(O)c1 [Example 317, N-cyclopropyl-1-{4-[(ethylamino)carbonyl]-2-hydroxyphenyl}-5-(hydroxymethyl)-1H-1,2,3-triazole-4-carboxamide]			185 °C
C/C=C/c1c(C(=O)NC2CC2)nnn1-c1ccc(C(=O)NCC(F)(F)F)cc1 [Example 399, N-cyclopropyl-5-[(1E)-prop-1-en-1-yl]-1-(4-{[(2,2,2-trifluoroethyl)amino]carbonyl}phenyl)-1H-1,2,3-triazole-4-carboxamide]		1400	

Next, values leading:

IC50 (human PAR-1 [1]) [µM]	IC50 (human PAR-1 [2]) [nM]	melting point	SMILES
	2700		CCNC(=O)c1ccc(-n2nnc(C(=O)NC3CC3)c2-c2ccccc2)cc1 [Example 105, N-cyclopropyl-1-{4-[(ethylamino)carbonyl]phenyl}-5-phenyl-1H-1,2,3-triazole-4-carboxamide]
	3400		CCNC(=O)c1ccc(-n2nnc(C(=O)NC3CC3)c2CCCF)cc1 [Example 109, N-cyclopropyl-1-{4-[(ethylamino)carbonyl]phenyl}-5-(3-fluoropropyl)-1H-1,2,3-triazole-4-carboxamide]
	3100		CCNC(=O)c1ccc(-n2nnc(C(=O)NC3CC3)c2CCCO)cc1 [Example 113, N-cyclopropyl-1-{4-[(ethylamino)carbonyl]phenyl}-5-(3-hydroxypropyl)-1H-1,2,3-triazole-4-carboxamide]
		156 °C	CCNC(=O)c1ccc(-n2nnc(C(=O)NC3CC3)c2CCO)cc1 [Example 114, N-cyclopropyl-1-{4-[(ethylamino)carbonyl]phenyl}-5-(2-hydroxyethyl)-1H-1,2,3-triazole-4-carboxamide]
	750		CCNC(=O)c1ccc(-n2nnc(C(=O)NC3CC3)c2COc2ccc(Br)cc2)cc1 [Example 116, 5-[(4-bromophenoxy)methyl]-N-cyclopropyl-1-{4-[(ethylamino)carbonyl]phenyl}-1H-1,2,3-triazole-4-carboxamide]
	1400		CCNC(=O)c1ccc(-n2nnc(C(=O)NC3CC3)c2COc2cccc(Cl)n2)cc1 [Example 118, 5-{[(6-chloropyridin-2-yl)oxy]methyl}-N-cyclopropyl-1-{4-[(ethylamino)carbonyl]phenyl}-1H-1,2,3-triazole-4-carboxamide]
	3300		CCNC(=O)c1ccc(-n2nnc(C(=O)NC3CC3)c2COc2ccc(OC)cc2)cc1 [Example 122, N-cyclopropyl-1-{4-[(ethylamino)carbonyl]phenyl}-5-[(4-methoxyphenoxy)methyl]-1H-1,2,3-triazole-4-carboxamide]
	980		CCNC(=O)c1ccc(-n2nnc(C(=O)NC3CC3)c2COc2ccc(F)cc2)cc1 [Example 123, N-cyclopropyl-1-{4-[(ethylamino)carbonyl]phenyl}-5-[(4-fluorophenoxy)methyl]-1H-1,2,3-triazole-4-carboxamide]
		153 °C	CCNC(=O)c1ccc(-n2nnc(C(=O)NC3CC3)c2CNCc2ccccc2)cc1 [Example 126, 5-[(benzylamino)methyl]-N-cyclopropyl-1-{4-[(ethylamino)carbonyl]phenyl}-1H-1,2,3-triazole-4-carboxamide]
	740	192 °C	CCNC(=O)c1ccc(-n2nnc(C(=O)NC3CC3)c2CSC)cc1 [Example 129, N-cyclopropyl-1-{4-[(ethylamino)carbonyl]phenyl}-5-[(methylthio)methyl]-1H-1,2,3-triazole-4-carboxamide]
	480		CCNC(=O)c1ccc(-n2nnc(C(=O)NC3CC3)c2CSc2ccccc2)cc1 [Example 130, N-cyclopropyl-1-{4-[(ethylamino)carbonyl]phenyl}-5-[(phenylthio)methyl]-1H-1,2,3-triazole-4-carboxamide]
	190		CCNC(=O)c1ccc(-n2nnc(C(=O)NC3CC3)c2COc2cccc(F)c2)cc1 [Example 414, N-cyclopropyl-1-{4-[(ethylamino)carbonyl]phenyl}-5-[(3-fluorophenoxy)methyl]-1H-1,2,3-triazole-4-carboxamide]
	330		CCNC(=O)c1ccc(-n2nnc(C(=O)NC3CC3)c2CCCOc2ccc(OC(F)(F)F)cc2)cc1 [Example 522, N-cyclopropyl-1-{4-[(ethylamino)carbonyl]phenyl}-5-{3-[4-(trifluoromethoxy)phenoxy]propyl}-1H-1,2,3-triazole-4-carboxamide]
